Measured values: US20210070748A1, “INHIBITORS OF BRUTONS TYROSINE KINASE” (Pharmacyclics LLC, priority 2015, published 2021)

biological target: T1, BTK-WT (Homo sapiens, UniProt Q06187); assay: Btk in vitro inhibitory activity (one of Method A TR-FRET, Method B electrophoretic mobility shift, Method C radiometric filter binding); format: biochemical; conditions: E compounds, Table 17; read-out: IC50 BTK-WT
T1 construct: purified from insect cells as a full-length construct containing an N-terminal 6X-His tag; His6 (N); made in house; host or cells: insect cells (baculovirus Sf21 in Method B)
T1 sequence (Q06187 whole entry): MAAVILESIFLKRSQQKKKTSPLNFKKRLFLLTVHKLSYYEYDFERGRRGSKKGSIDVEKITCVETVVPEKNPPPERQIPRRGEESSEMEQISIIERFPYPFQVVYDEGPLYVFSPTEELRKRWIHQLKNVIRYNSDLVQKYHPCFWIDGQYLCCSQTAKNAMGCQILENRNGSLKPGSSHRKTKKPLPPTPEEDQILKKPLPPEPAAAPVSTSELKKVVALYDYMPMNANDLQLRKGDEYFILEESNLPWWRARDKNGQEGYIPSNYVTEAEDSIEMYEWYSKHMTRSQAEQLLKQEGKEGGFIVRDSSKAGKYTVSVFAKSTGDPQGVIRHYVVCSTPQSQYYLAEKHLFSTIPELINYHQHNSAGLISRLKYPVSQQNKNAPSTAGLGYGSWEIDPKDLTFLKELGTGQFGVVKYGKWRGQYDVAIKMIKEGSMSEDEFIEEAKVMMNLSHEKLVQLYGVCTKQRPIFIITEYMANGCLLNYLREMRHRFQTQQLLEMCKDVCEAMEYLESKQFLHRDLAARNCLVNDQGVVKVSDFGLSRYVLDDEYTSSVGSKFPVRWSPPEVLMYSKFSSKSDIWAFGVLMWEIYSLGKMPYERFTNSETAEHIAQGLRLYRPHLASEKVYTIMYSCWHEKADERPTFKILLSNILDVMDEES

Structure (SMILES) | IC50
C=CC(=O)N1CCC[C@@H](Nc2nnc(C(N)=O)c(Nc3ccc(C(C)(C)C)cc3)n2)C1 [Example E-24, (R)-3-(1-acryloylpiperidin-3-ylamino)-5-(4-tert-butylphenylamino)-1,2,4-triazine-6-carboxamide] | ≤ 10 nM
C[C@@H]1[C@H](NC(=O)c2ccc3oc(C4CC4)nc3c2)CCCN1c1cnc(C(N)=O)c(Nc2cnn(C)c2)n1 [Example E-139, N-((2R,3R)-1-(5-carbamoyl-6-((1-methyl-1H-pyrazol-4-yl)amino)pyrazin-2-yl)-2-methylpiperidin-3-yl)-2-cyclopropylbenzo[d] oxazole-5-carboxamide] | ≤ 10 nM
C=CC(=O)N1CC[C@@H](N(C)c2cnc(C(N)=O)c(Nc3ccc(C4CCN(C5CCCC5)CC4)cc3)n2)C1 [Example E-109, (R)-5-((1-acryloylpyrrolidin-3-yl)(methyl)amino)-3-(4-(1-cyclopentylpiperidin-4-yl)phenylamino)pyrazine-2-carboxamide] | ≤ 10 nM
C=CC(=O)N1CCC[C@@H](Nc2nnc(C(N)=O)c(Nc3ccc(-c4ncco4)cc3)n2)C1 [Example E-40, (R)-3-(1-acryloylpiperidin-3-ylamino)-5-(4-(oxazol-2-yl)phenylamino)-1,2,4-triazine-6-carboxamide] | ≤ 10 nM
Cc1cc(C(=O)N[C@@H]2CCCN(c3cnc(C(N)=O)c(Nc4cnn(C)c4)n3)[C@@H]2C)ccc1C(C)(C)O [Example E-152, 5-((2R,3R)-3-(4-(2-hydroxypropan-2-yl)-3-methylbenzamido)-2-methylpiperidin-1-yl)-3-((1-methyl-1H-pyrazol-4-yl)amino)pyrazine-2-carboxamide] | ≤ 10 nM

same assay, conditions: Table 13, A compounds; read-out: IC50 BTK-WT

Structure (SMILES) | IC50
C[C@@H]1[C@H](NC(=O)c2ccc(C3CC3)cc2F)CCCN1c1cnc(C(N)=O)c(Nc2cc(CN3CCOCC3)ns2)n1 [Example A-128, 5-[(2R,3R)-3-(4-cyclopropyl-2-fluorobenzamido)-2-methylpiperidin-1-yl]-3-{[3-(morpholin-4-ylmethyl)-1,2-thiazol-5-yl]amino}pyrazine-2-carboxamide] | ≤ 10 nM
C[C@@H]1[C@H](NC(=O)c2ccc(C3CC3)nc2)CCCN1c1cnc(C(N)=O)c(Nc2cnn(C)c2)n1 [Example A-190, 5-((2R,3R)-3-(6-cyclopropylnicotinamido)-2-methylpiperidin-1-yl)-3-(1-methyl-1H-pyrazol-4-ylamino)pyr-azine-2-carboxamide] | ≤ 10 nM
C[C@@H]1[C@H](NC(=O)c2ccc(C3CC3)cc2)CCCN1c1cnc(C(N)=O)c(Nc2ccc(N3CCN(C)CC3)cc2)n1 [Example A-170, 5-[(2R,3R)-3-(4-cyclopropylbenzamido)-2-methylpiperidin-1-yl]-3-{[4-(4-methylpiperazin-1-yl)phenyl]amino}pyrazine-2-carboxamide] | ≤ 10 nM
C[C@@H]1[C@H](NC(=O)c2ccc(C3CC3)cc2F)CCCN1c1cnc(C(N)=O)c(Nc2ccc(CN3CCN(C)CC3)cc2)n1 [Example A-106, 5-[(2R,3R)-3-(4-cyclopropyl-2-fluorobenzamido)-2-methylpiperidin-1-yl]-3-({4-[(4-methylpiperazin-1-yl)meth-yl]phenyl}amino)pyrazine-2-carboxamide] | ≤ 10 nM
C[C@@H]1[C@H](NC(=O)c2ccc(C3CC3)cn2)CCCN1c1cnc(C(N)=O)c(Nc2ccc(N3CCN(C)CC3)cc2)n1 [Example A-179, 5-[(2R,3R)-3-(5-cyclopropyl-pyridine-2-amido)-2-methylpiperidin-1-yl]-3-{[4-(4-methylpiperazin-1-yl)phenyl]amino}pyrazine-2-carboxamide] | ≤ 10 nM
C[C@@H]1[C@H](NC(=O)c2ccc(C3CC3)cc2F)CCCN1c1cnc(C(N)=O)c(Nc2nc3c(s2)CN(C)CC3)n1 [Example A-108, 5-[(2R,3R)-3-(4-cyclopropyl-2-fluorobenzamido)-2-methylpiperidin-1-yl]-3-({5-methyl-4H,5H,6H,7H-[1,3]thiazolo[5,4-c]pyridin-2-yl}amino)pyrazine-2-carboxamide] | 100 to 1000 nM
